Laboratory results: patent US20070249670A1, “Glycogen Phosphorylase Inhibitor Compounds and Pharmaceutical Compositions Thereof” (SMITHKLINE BEECHAM CORPORATION, priority 2004, published 2007)

Molecular target: T1, human liver glycogen phosphorylase a (HLGPa) (Homo sapiens, UniProt P06737)
T1 construct: creating a full-length cDNA fused at the 5′ end to codons for methionine-glycine-alanine-histidine; 6xHis tag (leader Met-Gly-Ala-His6-Gly-Gly) (N); made in house; host or cells: E. coli (bacterial expression plasmid pTXK1007LTev)
T1 sequence (P06737 2-847 limits assumed): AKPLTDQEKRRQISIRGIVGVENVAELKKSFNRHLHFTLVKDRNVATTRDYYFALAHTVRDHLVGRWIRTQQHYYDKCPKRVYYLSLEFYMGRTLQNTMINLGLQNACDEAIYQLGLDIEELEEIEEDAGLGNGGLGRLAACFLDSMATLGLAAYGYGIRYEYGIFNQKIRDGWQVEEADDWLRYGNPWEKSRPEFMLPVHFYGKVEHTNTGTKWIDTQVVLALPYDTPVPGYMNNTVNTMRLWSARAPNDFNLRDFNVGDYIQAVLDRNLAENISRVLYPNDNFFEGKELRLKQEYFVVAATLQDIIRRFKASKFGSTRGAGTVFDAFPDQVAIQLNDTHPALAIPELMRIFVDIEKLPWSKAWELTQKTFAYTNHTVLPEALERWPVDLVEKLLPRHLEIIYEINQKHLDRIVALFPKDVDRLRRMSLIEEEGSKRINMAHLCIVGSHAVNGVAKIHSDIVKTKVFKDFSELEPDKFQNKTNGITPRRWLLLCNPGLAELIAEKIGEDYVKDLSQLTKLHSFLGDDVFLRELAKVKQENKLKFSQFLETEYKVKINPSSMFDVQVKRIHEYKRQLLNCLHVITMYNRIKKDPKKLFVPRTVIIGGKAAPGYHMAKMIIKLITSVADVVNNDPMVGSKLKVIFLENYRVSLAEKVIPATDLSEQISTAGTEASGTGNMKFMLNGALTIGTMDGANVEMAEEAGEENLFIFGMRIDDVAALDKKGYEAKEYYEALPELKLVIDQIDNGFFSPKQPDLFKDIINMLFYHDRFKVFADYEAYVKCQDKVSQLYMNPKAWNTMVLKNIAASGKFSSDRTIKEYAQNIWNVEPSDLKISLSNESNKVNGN
Assay: Human liver glycogen phosphorylase a enzymatic activity assay (coupled, fluorescent resorufin readout, with and without 10 mM glucose)
Format: biochemical

[1] = human liver glycogen phosphorylase a enzymatic activity assay
[2] = human liver glycogen phosphorylase a, table does not say whether with or without 10 mM glucose

SMILES | IC50 [1] [nM] | IC50 [2] [nM]
CC[C@H](C)[C@H](NC(=O)c1cc(F)c(F)cc1NC(=O)Nc1c(C)cccc1C)C(=O)O [Example 80, N-[2-({[(2,6-dimethylphenyl)amino]carbonyl}amino)-4,5-difluorobenzoyl]-L-isoleucine] | 8730 | 
Cc1cccc(C)c1NC(=O)Nc1cc2ccccc2cc1C(=O)N[C@@H](CC1CCCCC1)C(=O)O [Example 145, 3-cyclohexyl-N-{[3-({[(2,6-dimethylphenyl)amino]carbonyl}amino)-2-naphthalenyl]carbonyl}-L-alanine] | 590 | 
Cc1cc(C)c(NC(=O)Nc2cc3ccccc3cc2C(=O)N[C@H](CC(=O)OC(C)(C)C)C2CCCCC2)c(C)c1 [Example 337, 1,1-dimethylethyl (3R)-3-cyclohexyl-3-({[3-({[(2,4,6-trimethylphenyl)amino]carbonyl}amino)-2-naphthalenyl]carbonyl}amino)propanoate] |  | 5260
O=C(Nc1cc(-c2ccc(F)cc2)sc1C(=O)N[C@H](C(=O)O)C1CCCCC1)Nc1c(Cl)cccc1Cl [Example 387, (2S)-cyclohexyl({[3-({[(2,6-dichlorophenyl)amino]carbonyl}amino)-5-(4-fluorophenyl)-2-thienyl]carbonyl}amino)ethanoic acid] |  | 430
Cc1cc(C)c(NC(=O)Nc2cc3ccccc3cc2C(=O)N[C@H](C#N)C2CCC(F)(F)CC2)c(C)c1 [Example 342, N—[(S)-cyano(4,4-difluorocyclohexyl)methyl]-3-({[(2,4,6-trimethylphenyl)amino]carbonyl}amino)-2-naphthalenecarboxamide] |  | 8600
COc1ccc(-c2cc(NC(=O)Nc3c(C)cc(C)cc3C)c(C(=O)NC3(C(=O)O)CCCCCCC3)s2)cc1 [Example 454, 1-({[5-[4-(methyloxy)phenyl]-3-({[(2,4,6-trimethylphenyl)amino]carbonyl}amino)-2-thienyl]carbonyl}amino)cyclooctanecarboxylic acid] | 1 | 
Cc1cc(C)c(NC(=O)Nc2cc3ccccc3cc2C(=O)N[C@@H](CC(=O)O)C(=O)O)c(C)c1 [Example 354, N-{[3-({[(2,4,6-trimethylphenyl)amino]carbonyl}amino)-2-naphthalenyl]carbonyl}-L-aspartic acid] |  | 61
Cc1cc(C)c(NC(=O)Nc2cc3ccccc3cc2C(=O)N[C@H](C(=O)O)[C@H]2CCCC(OC(=O)C(F)(F)F)C2)c(C)c1 (stereo partly drawn) [Example 360, (2S)-{(1S)-3-[(trifluoroacetyl)oxy]cyclohexyl}({[3-({[(2,4,6-trimethylphenyl)amino]carbonyl}amino)-2-naphthalenyl]carbonyl}amino)ethanoic acid] |  | 11
COc1cccc(-c2cc(C(=O)O)c(NC(=O)Nc3c(Cl)cccc3Cl)s2)c1 [Example 416, 2-({[(2,6-dichlorophenyl)amino]carbonyl}amino)-5-[3-(methyloxy)phenyl]-3-thiophenecarboxylic acid] | 4130 | 
Cc1cc(C)c(NC(=O)Nc2cc(Cl)ccc2C(=O)N[C@H](C(=O)O)C2CCCCC2)c(C)c1 [Example 179, (2S)-({[4-Chloro-2-({[(2,4,6-trimethylphenyl)amino]carbonyl}-amino)phenyl]carbonyl}amino)(cyclohexyl)ethanoic acid] | 35 | 
Cc1cccc(Cl)c1NC(=O)Nc1cc2ccccc2cc1C(=O)N[C@@H](CC(C)C)C(=O)O [Example 39, N-[3-({[(2-chloro-6-methylphenyl)amino]carbonyl}amino)-2-naphthoyl]-L-leucine] | 600 | 
COc1cc(NC(=O)Nc2c(C)cccc2C)c(C(=O)NC(C(=O)O)c2ccccc2)cc1OC (stereo not shown) [Example 105, {[2-({[(2,6-dimethylphenyl)amino]carbonyl}amino)-4,5-dimethoxybenzoyl]amino}(phenyl)acetic acid] | 19600 | 
O=C(Nc1cc2ccccc2cc1C(=O)N[C@H](C(=O)O)C1CCCC1)Nc1c(Cl)cc(Cl)cc1Cl [Example 343, (2S)-cyclopentyl({[3-({[(2,4,6-trichlorophenyl)amino]carbonyl}amino)-2-naphthalenyl]carbonyl}amino)ethanoic acid] |  | 130
Cc1cc(C)c(NC(=O)Nc2cc(-c3ccc(F)c(F)c3)ccc2C(=O)N[C@@H](C(=O)O)[C@H](C)OC(C)(C)C)c(C)c1 [Example 522, N-{[3′,4′-difluoro-3-({[(2,4,6-trimethylphenyl)amino]carbonyl}amino)-4-biphenylyl]carbonyl}-O-(1,1-dimethylethyl)-D-threonine] | 675 | 
CCCCN(CC(=O)O)C(=O)c1cc2ccccc2cc1NC(=O)Nc1c(Cl)cccc1Cl [Example 252, N-butyl-N-{[3-({[(2,6-dichlorophenyl)amino]carbonyl}amino)-2-naphthalenyl]carbonyl}glycine] |  | 650
COc1ccc(-c2nc(C(=O)O)c(NC(=O)Nc3c(C)cc(C)cc3C)s2)cc1 [Example 488, 2-[4-(Methyloxy)phenyl]-5-({[(2,4,6-trimethylphenyl)amino]carbonyl}amino)-1,3-thiazole-4-carboxylic acid] | 8230 | 
Cc1cccc(Cl)c1NC(=O)Nc1cc2ccccc2cc1C(=O)N[C@@H](Cc1ccccc1)C(=O)O [Example 62, N-[3-({[(2-chloro-6-methylphenyl)amino]carbonyl}amino)-2-naphthoyl]-L-phenylalanine] | 260 | 
O=C(Nc1cc2ccccc2cc1C(=O)N(Cc1ccccc1)[C@@H](Cc1ccccc1)C(=O)O)Nc1c(Cl)cccc1Cl [Example 251, N-{[3-({[(2,6-dichlorophenyl)amino]carbonyl}amino)-2-naphthalenyl]carbonyl}-N-(phenylmethyl)phenylalanine] |  | 12200
Cc1ccccc1NC(=O)Nc1cc2ccccc2cc1C(=O)NC(C(=O)O)c1ccccc1 (stereo not shown) [Example 95, {[3-({[(2-methylphenyl)amino]carbonyl}amino)-2-naphthoyl]amino}(phenyl)acetic acid] | 9890 | 
C[C@H](NC(=O)c1cc2ccccc2cc1NC(=O)Nc1ccccc1Cl)C(=O)O [Example 27, N-[3-({[(2-chlorophenyl)amino]carbonyl}amino)-2-naphthoyl]-L-alanine] | 13500 | 
Cc1cccc(C)c1NC(=O)Nc1cc(F)c(F)cc1C(=O)N[C@@H](CC(=O)O)C(=O)O [Example 78, N-[2-({[(2,6-dimethylphenyl)amino]carbonyl}amino)-4,5-difluorobenzoyl]-L-aspartic acid] | 9110 | 
CCc1cccc(CC)c1NC(=O)Nc1ccccc1C(=O)N[C@@H](CC(=O)O)C(=O)O [Example 83, N-[2-({[(2,6-diethylphenyl)amino]carbonyl}amino)benzoyl]-L-aspartic acid] | 34100 | 
Cc1ccccc1NC(=O)Nc1cc2ccccc2cc1C(=O)N[C@H](C(=O)O)[C@@H](C)O [Example 14, N-[3-({[(2-methylphenyl)amino]carbonyl}amino)-2-naphthoyl]-L-threonine] | 6410 | 
Cc1cc(C)c(NC(=O)Nc2cc(-c3ccc4c(c3)OCO4)ccc2C(=O)N[C@H](C(=O)O)C2CCCCC2)c(C)c1 [Example 224, (2S)-({[4-(1,3-Benzodioxol-5-yl)-2-({[(2,4,6-trimethylphenyl)amino]carbonyl}amino)phenyl]carbonyl}amino)(cyclohexyl)-ethanoic acid] |  | 3
Cc1cc(C)c(NC(=O)Nc2cc(-c3cc(F)cc(F)c3)ccc2C(=O)N[C@H](C(=O)O)C2CCCCC2)c(C)c1 [Example 526, (2S)-Cyclohexyl({[3′,5′-difluoro-3-({[(2,4,6-trimethylphenyl)amino]carbonyl}amino)-4-biphenylyl]carbonyl}amino)ethanoic acid] | 5 | 
COc1ccc(-c2ccc(C(=O)N[C@H](C(=O)O)[C@@H](C)OC(C)(C)C)c(NC(=O)Nc3c(C)cc(C)cc3C)c2)cc1 [Example 225, O-(1,1-Dimethylethyl)-N-{[4′-(methyloxy)-3-({[(2,4,6-trimethylphenyl)amino]carbonyl}amino)-4-biphenylyl]carbonyl}-L-threonine] |  | 2
Cc1cc(C)c(NC(=O)Nc2cc(-c3cccc(F)c3)ccc2C(=O)N[C@@H](CC(=O)O)C(=O)O)c(C)c1 [Example 507, N-{[3′-fluoro-3-({[(2,4,6-trimethylphenyl)amino]carbonyl}amino)-4-biphenylyl]carbonyl}-L-aspartic acid] | 53 | 
CNC(=O)NC1CCC(C(NC(=O)c2cc3ccccc3cc2NC(=O)Nc2c(C)cc(C)cc2C)C(=O)O)CC1 (mixture of isomers) [Example 352, (cis and trans)-(4-{[(methylamino)carbonyl]amino}cyclohexyl)({[3-({[(2,4,6-trimethylphenyl)amino]carbonyl}amino)-2-naphthalenyl]carbonyl}amino)acetic acid] |  | 100
